Measurements: patent publication US9480627B2, “Long term bacteriostatic compounds and their use in restorative dental materials” (priority 2010, dated 2016)

Assay: Storage stability in sealed container in 37 C oven for nine months
Conditions: nine month storage period
Excerpt: These ingredients were blended together until homogenous and were allowed to remain in a sealed container in a 37 C oven for nine months.

Substance: Zinc pyrithione
- stability with acrylic dental adhesives (premature cure on storage): does not cure
